Experimental data as given in ChEMBL document CHEMBL1136927, “Nonsteroidal selective androgen receptor modulators (SARMs): dissociating the anabolic and androgenic activities of the androgen receptor for therapeutic benefit” (J Med Chem, 2009).
pKi: −log10 of the molar value.

Assays:
[1] = species on record: Rattus norvegicus; test: Osteoanabolic effect in rat assessed as reduction in osteocalcin level relative to basal level; format: functional; design: scale not given: the % may be the effect or the level left
[2] = system: Rattus norvegicus; test: Myotropic activity in rat assessed as ventral prostate weight at 3 mg/kg administered in 12 week atrophy followed by 8 weeks treatment schedule by Hershberger assay; format: functional, Prostate gland
[3] = system: Rattus norvegicus; test: Myoanabolic activity in castrated rat assessed as restored soleus muscle strength at 3 mg/kg; format: functional
[4] = species on record: Rattus norvegicus; test: Myotropic activity in rat assessed as levator ani muscle weight at 30 mg/day by Hershberger assay relative to intact tissue; format: functional
[5] = system: Rattus norvegicus; test: Myotropic activity in rat assessed as ventral prostate weight at 30 mg/kg by Hershberger assay; format: functional; conditions: Prostate gland
[6] = species on record: Rattus norvegicus; test: Myotropic activity in rat assessed as levator ani muscle weight by Hershberger assay relative to intact tissue; format: functional
[7] = system: Rattus norvegicus; test: Myotropic activity in rat assessed as ventral prostate weight by modified Hershberger assay at 3 mg/kg; format: functional; conditions: Prostate gland
[8] = system: Rattus norvegicus; test: Myotropic activity in rat assessed as ventral prostate weight by modified Hershberger assay at 10 mg/kg; format: functional; conditions: Prostate gland
[9] = system: Rattus norvegicus; test: Suppression of hyphalamic-pituitary-gonadal axis in rat assessed as reduction in follicle-stimulating hormone level at 30 mg/kg; format: functional
[10] = species on record: Rattus norvegicus; test: Myotropic activity in rat assessed as levator ani muscle weight at 10 mg/day by Hershberger assay relative to intact tissue; format: functional
[11] = species on record: Rattus norvegicus; test: Myotropic activity in rat assessed as ventral prostate weight by Hershberger assay relative to intact tissue; format: functional, Prostate gland
[12] = species on record: Rattus norvegicus; test: Myotropic activity in intact rat assessed as reduction in ventral prostate weight by Hershberger assay; format: functional, Prostate gland; design: scale not given: the % may be the effect or the level left
[13] = species on record: Rattus norvegicus; test: Myotropic activity in rat assessed as levator ani muscle weight at 3 mg/day by modified Hershberger assay relative to intact tissue; format: functional
[14] = species on record: Rattus norvegicus; test: Myotropic activity in rat assessed as ventral prostate weight at 0.3 mg/day by Hershberger assay; format: functional, Prostate gland
[15] = species on record: Rattus norvegicus; test: Reduction in testes weight in intact rat at 5 ug/day; format: functional, Testis; design: scale not given: the % may be the effect or the level left
[16] = species on record: Rattus norvegicus; test: Myotropic activity in rat assessed as seminal vesicle weight by Hershberger assay relative to intact tissue; format: functional; conditions: for Emax: Rattus norvegicus, Seminal vesicle
[17] = Clearance in iv dosed rat; format: ADME, organism-based; conditions: in vivo
[18] = Volume of distribution at steady state in iv dosed rat; format: ADME, organism-based; conditions: in vivo, read-out: Vdss
[19] = Terminal half life in iv dosed rat; format: ADME, organism-based; conditions: in vivo, read-out: beta t1/2 (converted)
[20] = Oral bioavailability in rat at 10 mg/kg; format: ADME, organism-based; conditions: in vivo
[21] = system: Rattus norvegicus; test: Myotropic activity in rat assessed as ventral prostate weight at 10 mg/kg by Hershberger assay; format: functional; conditions: Prostate gland
[22] = system: Rattus norvegicus; test: Suppression of hyphalamic-pituitary-gonadal axis in rat at 3 mg/kg; format: functional
[23] = system: Rattus norvegicus; test: Myotropic activity in rat assessed as ventral prostate weight at 100 mg/kg by Hershberger assay; format: functional; conditions: Prostate gland
[24] = Half life in human; format: ADME, organism-based; conditions: in vivo
[25] = Oral bioavailability in dog; format: ADME, organism-based, Canis lupus familiaris; conditions: in vivo
[26] = system: Rattus norvegicus; test: Myoanabolic activity in castrated rat assessed as restored soleus muscle strength at 10 mg/kg; format: functional
[27] = species on record: Rattus norvegicus; test: Restoration of lean body mass in intact rat; format: functional
[28] = biological target: T1, Androgen receptor (Homo sapiens, UniProt P10275)
T1 sequence (P10275 whole entry): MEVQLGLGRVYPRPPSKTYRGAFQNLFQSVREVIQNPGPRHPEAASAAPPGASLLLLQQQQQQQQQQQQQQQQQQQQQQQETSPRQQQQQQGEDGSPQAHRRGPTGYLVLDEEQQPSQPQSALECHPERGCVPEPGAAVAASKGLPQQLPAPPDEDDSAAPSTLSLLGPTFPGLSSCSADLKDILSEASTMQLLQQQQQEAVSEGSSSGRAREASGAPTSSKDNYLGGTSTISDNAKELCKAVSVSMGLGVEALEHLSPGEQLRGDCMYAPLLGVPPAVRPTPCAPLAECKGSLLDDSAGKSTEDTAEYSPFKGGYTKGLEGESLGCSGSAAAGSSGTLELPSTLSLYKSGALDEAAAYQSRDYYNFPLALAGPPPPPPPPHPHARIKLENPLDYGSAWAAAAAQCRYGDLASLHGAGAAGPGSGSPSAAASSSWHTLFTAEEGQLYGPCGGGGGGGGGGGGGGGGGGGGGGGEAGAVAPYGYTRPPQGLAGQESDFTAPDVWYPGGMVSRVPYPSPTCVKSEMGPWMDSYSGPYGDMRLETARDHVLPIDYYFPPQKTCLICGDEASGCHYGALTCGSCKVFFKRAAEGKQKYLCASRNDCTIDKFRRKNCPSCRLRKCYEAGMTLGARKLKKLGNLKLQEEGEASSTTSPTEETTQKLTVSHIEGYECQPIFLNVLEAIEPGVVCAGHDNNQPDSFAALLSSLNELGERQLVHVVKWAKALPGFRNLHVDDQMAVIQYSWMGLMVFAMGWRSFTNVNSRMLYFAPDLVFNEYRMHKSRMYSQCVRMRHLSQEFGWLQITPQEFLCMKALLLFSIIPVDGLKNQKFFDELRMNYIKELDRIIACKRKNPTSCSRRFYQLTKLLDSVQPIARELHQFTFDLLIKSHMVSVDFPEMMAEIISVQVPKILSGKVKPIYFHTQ
Description: Agonist activity at androgen receptor

[29] = species on record: Rattus norvegicus; test: Suppression of hyphalamic-pituitary-gonadal axis in rat; format: functional
[30] = Rattus norvegicus, Levator ani muscle
[31] = Rattus norvegicus, Levator ani muscle, read-out: ED50
[32] = Rattus norvegicus, Prostate gland
[33] = Rattus norvegicus, Prostate gland, read-out: ED50

C[C@]12CCC(=O)C[C@@H]1CC[C@@H]1[C@@H]2CC[C@]2(C)[C@@H](O)CC[C@@H]12 [STANOLONE]
Activity [1]: 50%
Activity [2]: 200%
Activity [3]: 138 kN/m2

CN(C)C1CC(C(C)(C)CO)Nc2ccc([N+](=O)[O-])cc21 (configuration not stated)
Emax [4]: 115%
Emax at 30 mg/kg [5]: 80%

C[C@@]12CC(C(F)(F)F)=NN1C(=O)N(c1ccc(C#N)c(C(F)(F)F)c1)C2=O
ED50 [6]: 2.9 mg/day
Emax [6, 30]: 75%
Emax at 3 mg/kg [7]: 11%

C[C@@]1(C(=O)Nc2ccc(C#N)c(C(F)(F)F)c2)CC(C(F)(F)F)=NN1
Emax at 10 mg/kg [8]: 26%
Emax at 30 mg/kg [9]: 40%
ED50 [6, 31]: 3.8 mg/kg
Emax [10]: 100%

C[C@]12CC(C(F)(F)F)=NN1C(N)=N/C2=N\c1ccc(C#N)c(C(F)(F)F)c1
Emax [11, 32]: 31%
ED50 [11, 33]: > 30 mg/kg
Emax [6, 30]: 91%
ED50 [6, 31]: 2.8 mg/kg
Activity [12]: 26%

C[C@@]12CC(C(F)(F)F)=NN1[S+]([O-])N(c1ccc(C#N)c(C(F)(F)F)c1)C2=O (some centres not stated)
Emax [13]: 117%
Emax at 3 mg/kg [7]: 58%

C[C@](O)(COc1ccc(Cl)c(F)c1)C(=O)Nc1ccc(C#N)c(C(F)(F)F)c1
Activity [14]: 79.4%
Activity [15]: 94%
ED50 [11]: 0.43 mg/day
Emax [11, 32]: 138%
ED50 [16]: 0.41 mg/day
Emax [16]: 144%
clearance [17]: 0.87 mL/min/kg
Vd [18]: 0.66 L/kg
half-life [19]: 11.9 h
bioavailability [20]: 96%
Emax [6, 30]: 139%

Cc1c(N2C(=O)[C@@H]3[C@H](O)CCN3S2(=O)=O)ccc(C#N)c1Cl
Emax [10]: 68%
Emax at 10 mg/kg [21]: 8%

C[C@]12CC[C@H]3[C@@H](CCC4=CC(=O)CC[C@@]43C)[C@@H]1CC[C@@H]2O [TESTOSTERONE]
ED50 [11]: 0.13 mg/day
Emax [11, 32]: 120%
ED50 [6]: 0.15 mg/day
Emax [6, 30]: 104%

O=c1cc(C(F)(F)F)c2cc(N(CC(F)(F)F)CC(F)(F)F)ccc2[nH]1
Emax at 3 mg/kg [22]: 100%
Emax [6, 30]: 150%
Emax at 100 mg/kg [23]: 100%

C[C@](O)(CS(=O)(=O)c1ccc(F)cc1)C(=O)Nc1ccc(C#N)c(C(F)(F)F)c1 [(R)-BICALUTAMIDE]
half-life [24]: 140 h

CC(=O)Nc1ccc(OC[C@](C)(O)C(=O)Nc2ccc([N+](=O)[O-])c(C(F)(F)F)c2)cc1
ED50 [11]: 0.43 mg/day
Emax [11, 32]: 35.2%
ED50 [16]: 0.55 mg/day
Emax [16]: 28.5%
clearance [17]: 1 mL/min/kg
Vd [18]: 0.42 L/kg
half-life [19]: 2.6 h
bioavailability [20]: 100%
bioavailability [25]: 91%
ED50 [6]: 0.14 mg/day
Emax [6, 30]: 101%
Activity [26]: 156 kN/m2
Activity [1]: 70%
Activity [2]: 20%
Activity [3]: 120 kN/m2

C[C@@H]1CC[C@H]([C@@H](O)C(F)(F)F)N1c1ccc2[nH]c(=O)cc(C(F)(F)F)c2c1 [LGD-2941]
Emax [10]: 180%
Emax at 10 mg/kg [21]: 100%

C=C[C@@](O)(c1nc2cc(Cl)c(Cl)cc2[nH]1)C(F)(F)F
Emax [6, 30]: 101%
ED50 [6, 31]: 0.8 mg/kg
Activity [12]: 46%
Activity [27]: 20%
Emax at 3 mg/kg [7]: 21%
pKi [28]: 8.96

CC(=O)Nc1ccc(SC[C@](C)(O)C(=O)Nc2ccc(C#N)c(C(F)(F)F)c2)cc1 [ACETOTHIOLUTAMIDE]
Activity [11]: 20%
Activity [16]: 50%

CC[C@H]1[C@@H]2[C@@H](O)CCN2C(=O)N1c1ccc(C#N)c(Cl)c1C
Emax [11, 32]: 65%
ED50 [11, 33]: 4.6 mg/kg
Emax [6, 30]: 120%
ED50 [6, 31]: 0.09 mg/kg

C[C@](O)(COc1ccc(F)cc1)C(=O)Nc1ccc([N+](=O)[O-])c(C(F)(F)F)c1
ED50 [11]: 0.42 mg/day
Emax [11, 32]: 14.9%
ED50 [16]: 0.38 mg/day
Emax [16]: 13.4%
clearance [17]: 3.6 mL/min/kg
Vd [18]: 1.5 L/kg
half-life [19]: 3.6 h
bioavailability [20]: 55%
ED50 [6]: 0.44 mg/day
Emax [6, 30]: 75%

Cc1c(N2C(=O)[C@@H]3[C@H](O)CCN3C2=O)ccc(C#N)c1Cl
Emax [11, 32]: 105%
ED50 [11, 33]: 0.14 mg/kg
Emax [6, 30]: 125%
ED50 [6, 31]: 0.009 mg/kg
ED50 [29]: 0.008 mg/kg

CCC(=O)O[C@H]1CC[C@H]2[C@@H]3CCC4=CC(=O)CC[C@]4(C)[C@H]3CC[C@]12C [TESTOSTERONE PROPIONATE]
ED50 [11]: 0.13 mg/day
Emax [11, 32]: 120%
ED50 [16]: 0.12 mg/day
Emax [16]: 70%
Emax [6, 30]: 104%

N#Cc1ccc(N2[C@@H]3CC[C@H]2C[C@@H](O)C3)c2ccccc12
Emax [6, 30]: 66%
ED50 [6, 31]: 17.3 mg/kg
ED50 [29]: 2.8 mg/kg
Emax [29]: 117%
Emax at 30 mg/kg [5]: 27%

CC[C@@H]1COc2c(ccc3[nH]c(=O)cc(C(F)(F)F)c23)N1CC(F)(F)F
ED50 [6]: 70 mg/day
Emax [10]: 100%
Emax at 100 mg/kg [23]: 80%
